From US20070213339A1 (Bayer Pharmaceuticals Corporation, priority 2004, published 2007)

Test system: Colo205 human colon carcinoma cell line
Assay: In vitro tumor cell proliferation assay (MTS, CellTiter 96 Aqueous One Solution)
Type: cell-based
Conditions: COLO 205, Colo205 cells, 72 hours compound exposure, MTS absorbance at 490 nm, read-out: IC50 (concentration of test compound required to inhibit proliferation of 50% of the cells)
In short: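 Proliferation measured as MTS tetrazolium reduction (490 nm) after 72 h compound exposure at 37 °C. Cells plated at 2000 per well in serum-supplemented RPMI-1640; duplicate 5-point dilutions topping out at 10-20 μM. Percent inhibition versus untreated and cell-free wells, IC50 derived by linear regression.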

SMILES	IC50
O=C(O)c1cn(-c2ccc(CN3CCCC3)cc2)c2c(OC(F)(F)F)c(N3CCN(c4ccc(F)cc4)CC3)c(F)cc2c1=O [Example 121, 6-fluoro-7-[4-(4-fluorophenyl)piperazin-1-yl]-4-oxo-1-[4-(pyrrolidin-1-ylmethyl)phenyl]-8-(trifluoromethoxy)-1,4-dihydroquinoline-3-carboxylic acid]	< 500 nM
O=C(O)c1cn(-c2ccc(CNC3CCC3)cc2)c2c(Cl)c(N3CCN(c4ncccn4)CC3)c(F)cc2c1=O [Example 191, 8-chloro-1-(4-cyclobutylaminomethyl-phenyl)-6-fluoro-4-oxo-7-(4-pyrimidin-2-yl-piperazin-1-yl)-1,4-dihydroquinoline-3-carboxylic acid]	< 500 nM
O=C(O)c1cn(-c2ccc(CNC3CCCCC3)cc2)c2c(Cl)c(N3CCN(c4ncccn4)CC3)c(F)cc2c1=O [Example 189, 8-chloro-1-(4-cyclohexylaminomethyl-phenyl)-6-fluoro-4-oxo-7-(4-pyrimidin-2-yl-piperazin-1-yl)-1,4-dihydroquinoline-3-carboxylic acid]	< 500 nM
O=C(O)c1cn(-c2ccc(CN3CCCC3)cc2)c2c(Cl)c(N3CCN(c4ccc(F)cc4F)CC3)c(F)cc2c1=O [Example 8, 8-chloro-7-[4-(2,4-difluorophenyl)piperazin-1-yl]-6-fluoro-4-oxo-1-[4-(pyrrolidin-1-ylmethyl)phenyl]-1,4-dihydroquinoline-3-carboxylic acid]	500 to 2000 nM
O=C(O)c1cn(-c2ccc(CN3CCCC3)cc2)c2c(Cl)c(N3CCN(c4ncccn4)CC3)c(F)cc2c1=O [Example 6, 8-chloro-6-fluoro-4-oxo-7-(4-pyrimidin-2-ylpiperazin-1-yl)-1-[4-(pyrrolidin-1-ylmethyl)phenyl]-1,4-dihydroquinoline-3-carboxylic acid]	< 500 nM
COc1c(N2CCN(c3ccc(F)cc3)CC2)c(F)cc2c(=O)c(C(=O)O)cn(-c3ccc(CN4CCCC4)cc3)c12 [Example 74, 6-fluoro-7-[4-(4-fluorophenyl)piperazin-1-yl]-8-methoxy-4-oxo-1-[4-(pyrrolidin-1-ylmethyl)phenyl]-1,4-dihydroquinoline-3-carboxylic acid]	< 500 nM
COc1c(N2CCN(c3ccc(C#N)cc3)CC2)c(F)cc2c(=O)c(C(=O)O)cn(-c3ccc(CN(C)C)cc3)c12 [Example 102, 7-[4-(4-cyanophenyl)piperazin-1-yl]-1-{4-[(dimethylamino)methyl]phenyl}-6-fluoro-8-methoxy-4-oxo-1,4-dihydroquinoline-3-carboxylic acid]	< 500 nM
CCN(CC)Cc1ccc(-n2cc(C(=O)O)c(=O)c3cc(F)c(N4CCN(c5ncccn5)CC4)c(OC(F)(F)Cl)c32)cc1 [Example 160]	500 to 2000 nM
O=C(O)c1cn(-c2ccc(CNC3CCCC3)cc2)c2c(Cl)c(N3CCN(c4ncccn4)CC3)c(F)cc2c1=O [Example 57, 8-chloro-1-{4-[(cyclopentylamino)methyl]-phenyl}-6-fluoro-4-oxo-7-(4-pyrimidin-2-ylpiperazin-1-yl)-1,4-dihydroquinoline-3-carboxylic acid]	< 500 nM
N#Cc1cccnc1N1CCN(c2c(F)cc3c(=O)c(C(=O)O)cn(-c4ccc(CN5CCCC5)cc4)c3c2Cl)CC1 [Example 7, 8-chloro-7-[4-(3-cyanopyridin-2-yl)piperazin-1-yl]-6-fluoro-4-oxo-1-[4-(pyrrolidin-1-ylmethyl)phenyl]-1,4-dihydroquinoline-3-carboxylic acid]	< 500 nM
CN(C)CCc1ccc(-n2cc(C(=O)O)c(=O)c3cc(F)c(N4CCN(c5ncccn5)CC4)c(Cl)c32)cc1 [Example 71, 8-chloro-1-{4-[2-(dimethylamino)ethyl]phenyl}-6-fluoro-4-oxo-7-(4-pyrimidin-2-ylpiperazin-1-yl)-1,4-dihydroquinoline-3-carboxylic acid]	2000 to 20000 nM
O=C(O)c1cn(-c2ccc(CN3CCCC3)c(F)c2)c2c(Cl)c(N3CCN(c4ccc(F)cc4)CC3)c(F)cc2c1=O [Example 186, 8-chloro-7-[4-(4-fluorophenyl)-piperazine-1-yl]-6-fluoro-1-(3-fluoro-4-pyrrolidin-1-ylmethyl-phenyl)-4-oxo-1,4-dihydroquinoline-3-carboxylic acid]	< 500 nM
CCN(CC)Cc1ccc(-n2cc(C(=O)O)c(=O)c3cc(F)c(N4CCN(c5ccccc5F)CC4)c(OC)c32)cc1 [Example 114, 1-{4-[(diethylamino)methyl]phenyl}-6-fluoro-7-[4-(2-fluorophenyl)piperazin-1-yl]-8-methoxy-4-oxo-1,4-dihydroquinoline-3-carboxylic acid]	< 500 nM
N#Cc1cccnc1N1CCN(c2c(F)cc3c(=O)c(C(=O)O)cn(-c4ccc(CN5CCCC5)c(F)c4)c3c2Cl)CC1 [Example 184, 8-chloro-7-[4-(3-cyanopyridin-2-yl)-piperazine-1-yl]-6-fluoro-1-(3-fluoro-4-pyrrolidin-1-ylmethyl-phenyl)-4-oxo-1,4-dihydroquinoline-3-carboxylic acid]	< 500 nM
CCN(CC)Cc1ccc(-n2cc(C(=O)O)c(=O)c3cc(F)c(N4CCN(c5ccccn5)CC4)c(OC(F)(F)Cl)c32)cc1 [Example 159, 8-[chloro(difluoro)methoxy]-1-{4-[(diethylamino)methyl]phenyl}-6-fluoro-4-oxo-7-(4-pyridin-2-ylpiperazin-1-yl)-1,4-dihydroquinoline-3-carboxylic acid]	< 500 nM
NC(=O)c1ccccc1N1CCN(c2c(F)cc3c(=O)c(C(=O)O)cn(-c4ccc(CN5CCCC5)cc4)c3c2Cl)CC1 [Example 10, 7-{4-[2-(aminocarbonyl)phenyl]piperazin-1-yl}-8-chloro-6-fluoro-4-oxo-1-[4-(pyrrolidin-1-ylmethyl)phenyl]-1,4-dihydroquinoline-3-carboxylic acid]	2000 to 20000 nM
COc1c(N2CCN(c3ccc(C(F)(F)F)cc3)CC2)c(F)cc2c(=O)c(C(=O)O)cn(-c3ccc(CN(C)C)cc3)c12 [Example 100, 1-{4-[(dimethylamino)methyl]phenyl}-6-fluoro-8-methoxy-4-oxo-7-{4-[4-(trifluoromethyl)phenyl]piperazin-1-yl}-1,4-dihydroquinoline-3-carboxylic acid]	2000 to 20000 nM
O=C(O)c1cn(-c2ccc(CNC3CCCC3)cc2)c2c(OC(F)(F)F)c(N3CCN(c4ccc(F)cc4)CC3)c(F)cc2c1=O [Example 182, 1-(4-cyclopentylaminomethyl-phenyl)-6-fluoro-7-[4-(4-fluorophenyl)-piperazine-1-yl]-4-oxo-8-trifluoromethoxy-1,4-dihydroquinoline-3-carboxylic acid]	< 500 nM
O=C(O)c1cn(-c2ccc(CN3CCCC3)cc2F)c2c(Cl)c(N3CCN(c4ccccn4)CC3)c(F)cc2c1=O [Example 46, 8-chloro-6-fluoro-1-[2-fluoro-4-(pyrrolidin-1-ylmethyl)phenyl]-4-oxo-7-(4-pyridin-2-ylpiperazin-1-yl)-1,4-dihydroquinoline-3-carboxylic acid]	500 to 2000 nM
COc1c(N2CCN(c3ccccc3[N+](=O)[O-])CC2)c(F)cc2c(=O)c(C(=O)O)cn(-c3ccc(CN4CCCCC4)cc3)c12 [Example 91, 6-fluoro-8-methoxy-7-[4-(2-nitrophenyl)-piperazin-1-yl]-4-oxo-1-[4-(piperidin-1-ylmethyl)phenyl]-1,4-dihydroquinoline-3-carboxylic acid]	500 to 2000 nM
COc1c(N2CCN(c3ccccc3SC)CC2)c(F)cc2c(=O)c(C(=O)O)cn(-c3ccc(CN4CCCC4)cc3)c12 [Example 88, 6-fluoro-8-methoxy-7-{4-[2-(methylthio)phenyl]-piperazin-1-yl}-4-oxo-1-[4-(pyrrolidin-1-ylmethyl)phenyl]-1,4-dihydroquinoline-3-carboxylic acid]	< 500 nM
CON(C)Cc1ccc(-n2cc(C(=O)O)c(=O)c3cc(F)c(N4CCN(c5ncccn5)CC4)c(Cl)c32)cc1 [Example 50, 8-chloro-6-fluoro-1-(4-{[methoxy(methyl)-amino]methyl}phenyl)-4-oxo-7-(4-pyrimidin-2-ylpiperazin-1-yl)-1,4-dihydroquinoline-3-carboxylic acid]	2000 to 20000 nM
N#Cc1ccccc1N1CCN(c2c(F)cc3c(=O)c(C(=O)O)cn(-c4ccc(CN5CCCC5)cc4)c3c2Cl)CC1 [Example 4, 8-chloro-6-fluoro-7-[4-(2-cyanophenyl)-piperazin-1-yl]-4-oxo-1-[4-(pyrrolidin-1-ylmethyl)phenyl]1,4-dihydroquinoline-3-carboxylic acid]	< 500 nM
N#Cc1ccccc1N1CCN(c2c(F)cc3c(=O)c(C(=O)O)cn(-c4ccc(CN5CC[C@@H](O)C5)cc4)c3c2Cl)CC1 [Example 32, 8-chloro-7-[4-(2-cyanophenyl)piperazin-1-yl]-6-fluoro-1-(4-{[(3R)-3-hydroxypyrrolidin-1-yl]methyl}phenyl)-4-oxo-1,4-dihydroquinoline-3-carboxylic acid]	< 500 nM
COC[C@@H]1CCCN1Cc1ccc(-n2cc(C(=O)O)c(=O)c3cc(F)c(N4CCN(c5ccc(F)cc5)CC4)c(Cl)c32)cc1 [Example 25, 8-chloro-6-fluoro-7-[4-(4-fluorophenyl)-piperazin-1-yl]-1-(4-{[(2S)-2-(methoxymethyl)pyrrolidin-1-yl]methyl}phenyl)-4-oxo-1,4-dihydroquinoline-3-carboxylic acid]	< 500 nM
CCN(CC)Cc1ccc(-n2cc(C(=O)O)c(=O)c3cc(F)c(N4CCN(c5ccc(F)cc5)CC4)c(OC)c32)cc1 [Example 105, 1-{4-[(diethylamino)methyl]phenyl}-6-fluoro-7-[4-(4-fluorophenyl)piperazin-1-yl]-8-methoxy-4-oxo-1,4-dihydroquinoline-3-carboxylic acid]	< 500 nM
COc1c(N2CCN(c3ccc(C(F)(F)F)cc3)CC2)c(F)cc2c(=O)c(C(=O)O)cn(-c3ccc(CN4CCCC4)cc3)c12 [Example 82]	2000 to 20000 nM
